The subject of assay [1] is PC-3 cells. As to the kind of experiment: Methylene blue assay (cell proliferation), PC-3. In kind it is cell-based, human. The note with it: PC-3, 5 days. As to the method:
(§1) The cells were fixed and stained with methylene blue and measured via spectrophotometry. […] EC50s were compared between the drugs: * denotes p<0.05 drug EC50 versus RN7-58, while ¶ denotes p<0.05, APX3330 versus APX2009.
(§2) Methylene Blue Assay (Cell Proliferation)
(§3) Prostate cells were seeded 1,000-5000 per well (cell line/experiment-dependent) and treated with one of APX3330, APX2009 or RN7-58 for 5 days. Media was then removed and cells were fixed with methanol for 10 minutes and stained with 100 μL of 0.05% of methylene blue (LC16920-1 diluted in 1×PBS) for 1 hour. The cells were then washed 3× with water and allowed to air dry overnight. 100 μL of 0.5 N HCl was added to each well to dissolve the methylene blue stain and absorbance (@630) was measured via spectrophotometry. The percent viabilities, normalized to DMSO, were graphed and IC50 concentrations determined.
(§4) To determine if inhibition of APE1/Ref-1's redox function affects cell proliferation, prostatic cell lines were treated with increasing concentrations of redox-specific inhibitors, APX3330 and APX2009, for 5 days and cell number was measured via methylene blue assay (FIG. 2A). […] Growth IC25's and IC50's were determined and arranged in Table 1. Student's t-test was performed to verify statistical IC25 and IC50 differences between APX3330 and APX2009.

For assay [2], the system named is C4-2 cells. As to the kind of experiment: Methylene blue assay (cell proliferation), C4-2. Type of assay: cell-based, human. The note with it: C4-2, 5 days. As to the method:
as §1, §2, §3, §4

Assay [3] relates to LNCaP cells. As to the kind of experiment: Methylene blue assay (cell proliferation), LNCaP. In kind it is cell-based, human. The note with it: 5 days. As to the method: as §1, §2, §3, §4
For assay [4], the system named is E7 cells. As to the kind of experiment: Methylene blue assay (cell proliferation), E7 non-cancerous prostate epithelial cells. In kind it is cell-based. The note with it: E7, 5 days. As for the experimental part: as §1, §2, §3, §4
Assay [5] deals with prostatic cell lines. As to the kind of experiment: Methylene blue assay (cell proliferation), statements across prostatic cell lines. Type of assay: cell-based, human. The note with it: increasing concentrations, 5 days. As to the method:
as §1, §2, §3, §4

Assay [6] concerns survivin. As to the kind of experiment: Immunoblotting for survivin protein levels in prostate cancer cells. Type of assay: cell-based, human. As to the method: (§5) PC-3 (FIG. 3A), C4-2 (FIG. 3B), LNCaP (FIG. 3C) and E7 (FIG. 3D) cell lines were treated with DMSO, or the growth inhibitory IC25 and IC50 drug concentrations of APX3330 or APX2009 for 48 hours Immunoblotting for survivin, APE1/Ref-1 and Actin as labeled. Representative of three determinations with densitometry quantification, N=3, *-denoting p<0.05 (DMSO vs. IC25 and IC50 Drug Concentrations) within ANOVA.
FIG. 6A: C4-2 cell line was treated with DMSO or APX2009 (14 μM) for 12 hours. RNA was isolated and RT-PCR for survivin was performed with HPRT1 as the reference gene. n=6, *-denoting p<0.05 by unpaired Student's t-test. FIG. 6B: Immunoblot validation of APE1/Ref-1 and p65 Co-Immunoprecipitation (Co-IP) reactions. A 5% sample of the total input of each reaction (Input) and the total IP reaction (IP) were loaded for each reaction. Beads lacking a conjugated antibody (Mock) and generic IgG (IgG) were used as negative controls for each IP experimental reaction, APE1 antibody (top blots) and p65 (bottom blots). FIG. 6C: C4-2 cell line was treated with DMSO, APX2009 (8 and 14 μM) or PDTC (50 and 100 μM) for 72 hours and cells were fixed and methylene blue was performed. n=3, *-denoting p<0.05 (DMSO vs 8 and 14 μM APX2009) and #-denoting p<0.05 (DMSO vs. 50 and 100 μM PDTC) as assessed by ANOVA. […] Data are expressed as Relative Luciferase Units (RLU) normalized to DMSO showing the mean±SEM. n=3, *-denoting p<0.05 (DMSO vs. 14 μM APX2009) and #-denoting p<0.05 (DMSO vs. 100 μM PDTC) within unpaired Students t-test. […] Data presented are representative of three determinations with densitometry quantification, […], *-denoting p<0.05 (DMSO vs. 14 μM APX2009) and #-denoting p<0.05 (DMSO vs. 100 μM) as assessed by unpaired Student's t-test.
Prostate cells were homogenized in lysis buffer containing protease inhibitor (150 mM NaCl, 10 mM tris, 1 mM EDTA, 1 mM benzenesulfonyl fluoride, and 10 μg/ml each of aprotinin, bestatin, L-luecine, and pepstatin A) and 1% Triton X-100. Total protein concentration was determined by BCA (bicinchoninic acid) assay (Pierce, Rockford, Ill.). […]

Assay [7] deals with APE1/Ref-1. As to the kind of experiment: Immunoblotting for total APE1/Ref-1 protein levels in prostate cancer cells. Type of assay: cell-based, human. As to conditions: growth inhibitory drug concentrations, 48 hours, vs DMSO. As for the experimental part:
as §5
Prostate cells were homogenized in lysis buffer containing protease inhibitor (150 mM NaCl, 10 mM tris, 1 mM EDTA, 1 mM benzenesulfonyl fluoride, and 10 μg/ml each of aprotinin, bestatin, L-luecine, and pepstatin A) and 1% Triton X-100. Total protein concentration was determined by BCA (bicinchoninic acid) assay (Pierce, Rockford, Ill.). 10 μg/well of Protein were resolved by electrophoresis in 4-15% gradient polyacrylamide gels (Bio-Rad Laboratories). […] Peroxidase activity was detected via Pico chemiluminescence reagent (Pierce). Photo images were analyzed by densitometry.

Assay [8] relates to C4-2 xenograft tumors. As to the kind of experiment: In vivo subcutaneous C4-2 xenograft tumor. The arrangement: species or system male athymic nude mice. As for the experimental part:
C4-2 xenograft tumors were treated with vehicle (Propylene Glycol Kolliphor HS15 Tween 80 (PKT)) or APX2009 (25 mg/kg, IP bid) for 5 days (n=3). Tumors were removed and processed for either immunofluorescence or immunoblotting. FIG. 8A: APE1/Ref-1 and survivin protein levels were measured using immunoblotting as labeled (Left). Data was presented graphically (Right), *-denoting p<0.05 by unpaired Student's t-Test. FIG. 8B: Hematoxylin and Eosin staining and immunofluorescence were performed using APE1/Ref-1 (red) and survivin (green) specific antibodies on vehicle and APX2009 groups. Representative images were taken. White arrows are depicting survivin nuclear staining patterns. […] ImageJ Nucleus Counter was used to quantify number of BrdU+ nuclei and total nuclei per image. n=3, *-denoting p<0.05 by unpaired Student's t-test.
Human prostate specimens or C4-2 xenograft tumors were fixed in 10% formalin, processed routinely, embedded in paraffin, and serially sectioned at 5 μm via microtome. […] The sections were analyzed by immunofluorescence. […]
2×10^6 C4-2 cells were subcutaneously implanted in the hind flank of male athymic nude mice using a 100 μl volume of 50:50 solution of Matrigel: RPMI medium. […] BrdU was injected into the animals 2 hours prior to sacrifice and tumor tissues were analyzed for survivin levels (immunofluorescence and immunoblotting) and BrdU incorporation (immunofluorescence).

Assay [9] concerns NFκB. As to the kind of experiment: NFκB-driven luciferase assay in C4-2 cells. In kind it is cell-based, human. The note with it: C4-2, growth inhibitory IC50 concentrations (14 μM APX2009, 100 μM PDTC), 24 hours. As for the experimental part:
FIG. 6A: C4-2 cell line was treated with DMSO or APX2009 (14 μM) for 12 hours. RNA was isolated and RT-PCR for survivin was performed with HPRT1 as the reference gene. n=6, *-denoting p<0.05 by unpaired Student's t-test. FIG. 6B: Immunoblot validation of APE1/Ref-1 and p65 Co-Immunoprecipitation (Co-IP) reactions. A 5% sample of the total input of each reaction (Input) and the total IP reaction (IP) were loaded for each reaction. Beads lacking a conjugated antibody (Mock) and generic IgG (IgG) were used as negative controls for each IP experimental reaction, APE1 antibody (top blots) and p65 (bottom blots). FIG. 6C: C4-2 cell line was treated with DMSO, APX2009 (8 and 14 μM) or PDTC (50 and 100 μM) for 72 hours and cells were fixed and methylene blue was performed. n=3, *-denoting p<0.05 (DMSO vs 8 and 14 μM APX2009) and #-denoting p<0.05 (DMSO vs. 50 and 100 μM PDTC) as assessed by ANOVA. […] Data are expressed as Relative Luciferase Units (RLU) normalized to DMSO showing the mean±SEM. n=3, *-denoting p<0.05 (DMSO vs. 14 μM APX2009) and #-denoting p<0.05 (DMSO vs. 100 μM PDTC) within unpaired Students t-test. […] Data presented are representative of three determinations with densitometry quantification, […], *-denoting p<0.05 (DMSO vs. 14 μM APX2009) and #-denoting p<0.05 (DMSO vs. 100 μM) as assessed by unpaired Student's t-test. […]

Where [10] appears, read: 25% reduction in absorbance vs DMSO, in µM.
Where [11] appears, read: 50% reduction in absorbance vs DMSO, read-out: Growth IC50.

pIC50: −log10 of the molar value. Where only a bound is given, the exact number is not on record here.

Take “3-[(5-(2,3-dimethoxy-6-methyl1,4-benzoquinoyl)]-2-nonyl-2-proprionic acid [APX3330]”: the “Growth IC25” value in [1] (setting [10]) was 36.0 +/− 1.0; in assay [2] (setting [10]) it was 57.4 +/− 3.8; in assay [3] (setting [10]), 43.8 +/− 4.2; in assay [4] (setting [10]), 82.7 +/− 8.7. Moreover, the pIC50 was 4.26 in assay [1] (setting [11]), 4.05 in assay [2] (setting [11]), 4.14 in [3] (setting [11]) and less than 4.00 in assay [4] (setting [11]). Besides, in assay [5], the “Effect on cell proliferation” value is on record as “inhibited cell proliferation in a concentration-dependent manner”. In assay [6] (growth inhibitory IC50 drug concentrations, within 48 hours, vs DMSO), the survivin protein abundance entry is reported as “significant decrease”. The “survival proteins Bcl-2, Mcl-1 and survivin” value in assay [6] (prostate cell lines, immunoblotting) was “decrease”. Also, the “total APE1/Ref-1 protein levels” value in assay [7] is given as “not significantly altered”. In addition, the “Total survivin protein in tumors via immunoblotting” value in assay [8] (25 mg/kg BID IP, 5 days, vs vehicle) is listed as “decreased”. Further, the “cell proliferation via BrdU staining” value in assay [8] (prostatic tumor xenografts) is given as “decreased”.

As for `N.S=C(S)N1CCCC1` [PDTC, Ammonium pyrrolidinedithiocarbamate, reference compound], the “reduction in survivin protein levels” value in assay [6] (C4-2, 14 μM APX2009 / 100 μM PDTC, 48 hours) was determined as 67%. The “decrease in NFκB-driven luciferase activity” value in [9] was “two-fold”.

(Values after US20190365689A1, “USE OF APE/REF-1 REDOX SPECIFIC INHIBITORS FOR TREATING METASTATIC PROSTATE CANCER” (Indiana University Research and Technology Corporation, priority 2017, published 2019).)
